Where “and” joins values, the source holds several entries; their conditions need not be identical. Equal entries are not always repeated. Where two headings read alike, the source gives them in different places.
Experiments:
[1] = system: HRV 14; assay: Antiviral assay, XTT method, HRV 14; format: cell-based
[2] = target: T1, Apopain (caspase-3) (Homo sapiens, UniProt P42574); assay: Apopain (Caspase-3) Regulation Assay (FluorAce Apopain Assay Kit); format: biochemical; conditions: Apopain modulation: Inhibitor or Activator
T1 construct: purchased Bio-rad FluorAce Apopain Assay Kit (booklet 4100119)
T1 sequence (P42574 29-175 limits assumed): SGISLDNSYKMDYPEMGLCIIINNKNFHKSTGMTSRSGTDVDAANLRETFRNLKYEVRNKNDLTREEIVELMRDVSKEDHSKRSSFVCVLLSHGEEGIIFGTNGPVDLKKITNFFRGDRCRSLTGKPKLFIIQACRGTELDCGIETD
T1 sequence (P42574 176-277 limits assumed): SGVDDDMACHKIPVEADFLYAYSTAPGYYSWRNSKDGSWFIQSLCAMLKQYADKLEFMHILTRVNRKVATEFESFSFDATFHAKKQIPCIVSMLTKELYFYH
Procedure: VI: Apopain (Caspase-3) Regulation Assay
The FluorAce™ Apopain Assay Kit (Bio-rad) was employed in multiwell format. Compounds assayed were diluted 5-fold in distilled water (from stock solutions in ethanol or DMSO) and centrifuged (5′, 14K rpm). 10 μL of the supernatant was further diluted in wells containing 100 μL distilled water and 40 μL 6×Buffer (41.7 mM PIPES, pH 7.4, 8.3 mM EDTA, 0.42% CHAPS, 20.8 mM DTT). This process was carried out twice to yield duplicate wells for each compound. Control wells were prepared by addition of EtOH and DMSO (5-fold diluted in distilled water) into wells containing 6×Buffer and distilled water (40 μL and 100 μL, respectively), to form 8 wells with each solvent. Enzyme (stock solution 10-fold diluted in distilled water, see Bio-rad booklet 4100119) was added to one set of compound-containing cells and to 8 control wells (4 with ethanol and 4 with DMSO). The plate was preincubated for ˜80′ at 27°-28° C. Substrate (Z-DEVD-AFC, 490 μM, 40 μL) was then added to all wells. The plate was left at room temperature and fluorescence (360/40↑530/20↓) was measured at several time points (FL500 fluorimetric reader, Bio-tek instruments). Fluorescence at enzyme-containing wells was background-subtracted at each time point and initial rates were determined by linear regression (typically R^2>0.97). Percentage inhibition and activation was determined by relating the slope with compound to the control slope (with appropriate solvent). IC50 values are extrapolated.

[3] = system: HRV 16; assay: Antiviral assay, XTT method, HRV 16; format: cell-based
[4] = Cytotoxicity by XTT assay (treated, mock-infected cells); conditions: human, H1-HeLa cells (ATCC), mock-infected
[5] = system: HRV 1A; assay: Antiviral assay, XTT method, HRV 1A; format: cell-based
[6] = system: HRV 1B; assay: Antiviral assay, XTT method, HRV 1B; format: cell-based
[7] = system: Hl-Hela cells; assay: Cytotoxicity by XTT assay (treated, mock-infected cells); conditions: read-out: TC50; Format 1; concentration that retards cell growth by 50%, mock-infected Hl-Hela cells
[8] = system: Hl-Hela cells
[9] = system: 3C protease; conditions: background, in words; cited from earlier work
[10] = system: elastase present in erythrocytes; conditions: background, in words; cited from earlier work
[11] = HRV 14, Format 1, restores 50% of viral-caused decrease in cell viability

Compound	IC50 ([1]; HRV 14, Format 2)	IC50 ([3]; HRV 16, Format 2)	IC50 [1, 11]	CC50 [7]	other results
CC(=O)c1c(O)cc(O)cc1O [SA#110]			192 µM		IC50 ([3]; HRV 16, Format 1): 425 µM; Activity [2]: Inhibitor; CC50 [4]: 548 ± 27 µM
COc1ccc(O)c(C(C)=O)c1 [compound 37]	220 ± 23 µM	149 ± 148 µM	146 µM		IC50 ([5]; Format 2): 830 ± 330 µM; IC50 ([6]; HRV 1B, Format 2): 610 ± 160 µM; Activity [2]: Inhibitor; CC50 [4]: > 1250 µM
CC(=O)c1c(O)cccc1OCC(N)=O [SA#121, 2-(2-acetyl-3-hydroxyphenoxy)-acetamide]	120 ± 50 µM	420 ± 140 µM	189 µM		IC50 ([5]; Format 1): 198 µM; CC50 [4]: 425 ± 8 µM
O=Cc1c(O)cc(O)cc1O [compound 34]			94 µM	410 ± 30 µM	
CCCCCC(=O)c1cc(Cl)c(O)c(Cl)c1O [SA#116]	50 ± 7 µM	61 ± 37 µM	13 µM	24 ± 6 µM	IC50 ([3]; HRV 16, Format 1): 21 µM
CC(=O)c1cc(F)ccc1O [compound 27]		47 ± 8 µM	444 µM		Activity [2]: Inhibitor; CC50 [4]: > 1250 µM
O=C(c1ccccc1O)c1cc(Cl)ccc1O [compound 137]			0.6 µM		IC50 ([5]; Format 1): 6.2 µM
CC(=O)c1cc(C)cc([N+](=O)[O-])c1O [compound 30]	31 ± 12 µM	29 ± 24 µM	55 µM		Activity [2]: Inhibitor; CC50 [4]: 67 ± 8 µM
CC(=O)c1c(O)cccc1OCC(N)=O (hydrate or solvate) [SA#121, 2-(2-acetyl-3-hydroxyphenoxy)-acetamide]					melting point: 151 to 152 °C
CC(=O)c1cccc(C#N)c1O [SA#51]					Activity [2]: Inhibitor
CC(=O)c1cc(Br)ccc1O [compound 28]	91 ± 62 µM	159 ± 44 µM	6.2 µM	1230 ± 610 µM	
CCCCCC(=O)c1c(O)c(Cl)c(OC)c(Cl)c1OCC(N)=O [compound 118]			380 µM	122 ± 6 µM	IC50 ([5]; Format 1): 81 µM
CC(=O)c1c(O)ccc2ccccc12 [compound 35]	42 ± 20 µM	38 ± 14 µM	62 µM	180 ± 10 µM	IC50 ([5]; Format 2): 630 ± 470 µM; IC50 ([6]; HRV 1B, Format 2): 240 ± 140 µM
COc1ccc(C(=O)c2ccccc2O)c(O)c1 [compound 1]	23 ± 20 µM	165 ± 134 µM	16 µM	50 ± 10 µM	
CCCCCC(=O)c1c(OC)cc(O)c(Cl)c1O [SA#134]	122 ± 14 µM	13 ± 6 µM	63 µM	48 ± 6 µM	IC50 ([3]; HRV 16, Format 1): 12 µM
O=C(c1ccccc1)c1ccccc1O [compound 136]	13 ± 5 µM	6 ± 3 µM	6.3 µM	28 ± 2 µM	
CC(=O)c1cc(Cl)cc([N+](=O)[O-])c1O [compound 31]	11 ± 1 µM	35 ± 26 µM	14 µM	12 ± 1 µM	IC50 ([5]; Format 2): 80 ± 62 µM
CCOC(=O)c1c(O)cc(O)c(C(C)=O)c1O [SA#132]			17 µM	29 ± 5 µM	IC50 ([5]; Format 1): 13 µM; IC50 ([6]; HRV 1B, Format 1): 24 µM
C[C@H]1CC2=C(C(=O)c3c(O)cc(O)cc3C2=O)[C@H](O)O1 [Thysanone]					inhibition of the 3C protease [9]: inhibitor of the 3C protease; inhibition of elastase [10]: efficient inhibitor
O=C(CCc1ccccc1)c1cc(Cl)ccc1O [SA#43]					IC50 [1]: 30 ± 20 µM; IC50 [3]: 340 ± 70 µM; IC50 [6]: 40 ± 10 µM
COc1cc(O)c(C(C)=O)c(OC)c1 [compound 14]				780 ± 206 µM	IC50 ([3]; HRV 16, Format 1): 225 µM
C/C=C/c1cc2c(c(=O)o1)C(=O)[C@@H](O)[C@H](C)O2 [radicinin]					inhibition of the 3C protease [9]: lower level of inhibition than thysanone
CC(=O)c1cc(Cl)cc(Cl)c1O [compound 29]	6 ± 2 µM	6 ± 2 µM	4.8 µM	29 ± 8 µM	IC50 ([5]; Format 2): 19 ± 8 µM; IC50 ([6]; HRV 1B, Format 2): 8 ± 5 µM
CC(=O)c1cc(Cl)ccc1O [compound 12]	150 µM and 290 µM	590 ± 300 µM		> 2500 µM	IC50 ([3]; HRV 16, Format 1): 137 µM; IC50 ([6]; HRV 1B, Format 2): 305 ± 55 µM
CCCCCC(=O)c1c(O)cc(O)c(Cl)c1OC [compound 125]			45 µM	50 ± 5 µM	IC50 ([3]; HRV 16, Format 1): 60 µM
CC(=O)c1cc(Br)cc(Br)c1O [compound 38]	10 ± 2 µM	6 ± 2 µM	26 µM	59 ± 4 µM	
CCC(=O)c1cc(O)ccc1O [compound 36]	32 ± 4 µM	44 ± 15 µM	27 µM	1720 ± 660 µM	

The next lines start with results.

IC50 ([1]; HRV 14, Format 2)	IC50 ([3]; HRV 16, Format 2)	Compound	IC50 [1, 11]	CC50 [7]	other results
590 ± 320 µM		CC(=O)c1c(O)c(Cl)cc(Cl)c1O [SA#109]			Activity [2]: Inhibitor
59 ± 4 µM	27 ± 27 µM	O=C(c1ccccc1O)c1cc(Br)ccc1O [compound 142]			IC50 ([5]; Format 2): 25 ± 12 µM
160 ± 70 µM		CC(=O)c1cc(Cl)c(C)cc1O [compound 41]			
210 ± 170 µM		CC(=O)c1ccccc1O [compound 6]			
170 ± 100 µM		O=Cc1cc([N+](=O)[O-])ccc1O [compound 46]			Activity [2]: Inhibitor
9 ± 4 µM	50 ± 10 µM	O=C(CCc1ccc(O)cc1)c1c(O)cc(O)cc1O [compound 91]			IC50 ([5]; Format 2): 130 ± 14 µM; IC50 ([6]; HRV 1B, Format 2): 26 ± 15 µM; Activity [2]: Inhibitor
230 ± 170 µM	35 ± 7 µM	CC(=O)c1cc(O)ccc1O [compound 8]			IC50 ([5]; Format 2): 141 ± 25 µM; IC50 ([6]; HRV 1B, Format 2): 33 ± 3 µM; Activity [2]: Inhibitor
	810 ± 180 µM	CC(=O)c1ccc(O)cc1O [compound 7]			
40 ± 30 µM	70 ± 60 µM	CCCCCC(=O)c1ccc(O)cc1O [compound 114]			
130 ± 40 µM	2.1 ± 1.6 µM	Cc1cc(O)c(C(=O)c2ccccc2O)cc1Cl [compound 144]			
12 ± 2 µM		O=Cc1cc(I)cc(I)c1O [compound 47]			Activity [2]: Activator
5 ± 1 µM	1.4 ± 0.8 µM	CCCCCC(=O)c1c(O)c(Cl)c(OC)c(Cl)c1O [SA#15]			Activity [2]: Activator
120 ± 40 µM		O=C(CCc1ccccc1)c1ccccc1O [compound 42]			IC50 ([5]; Format 2): 210 ± 70 µM; IC50 ([6]; HRV 1B, Format 2): 29 ± 1 µM
	70 ± 50 µM	COC(=O)c1c(O)cc(C)cc1O [compound 147]			
31 ± 6 µM	4 ± 3 µM	CCCCCCCCNC(=O)c1cc([N+](=O)[O-])cc([N+](=O)[O-])c1O [SA#128]	152 µM		CC50 [8]: 429 ± 42 µM
250 ± 90 µM		O=c1cc(-c2ccccc2)oc2cc(O)cc(O)c12 [compound 83]			
40 ± 33 µM	30 ± 8 µM	O=C(NCc1ccccc1)c1cc([N+](=O)[O-])cc([N+](=O)[O-])c1O [SA#120]	30 µM		CC50 [8]: 271 ± 22 µM
14 ± 3 µM	6 ± 1 µM	O=Cc1cc(Cl)cc(Cl)c1O [compound 33]			IC50 ([5]; Format 2): 9 ± 1 µM; IC50 ([6]; HRV 1B, Format 2): 4 ± 1 µM; Activity [2]: Inhibitor
16 ± 4 µM	15 ± 4 µM	O=C(NCCc1ccccc1)c1cc([N+](=O)[O-])cc([N+](=O)[O-])c1O [SA#127]	23 µM		IC50 ([5]; Format 2): 13 ± 3 µM; IC50 ([6]; HRV 1B, Format 2): 11 ± 1 µM; CC50 [8]: 187 ± 18 µM
1.2 ± 0.5 µM	7 ± 4 µM	O=c1c(O)c(-c2ccc(O)cc2)oc2cc(O)cc(O)c12 [compound 90]			IC50 ([5]; Format 2): 5 ± 1 µM; IC50 ([6]; HRV 1B, Format 2): 7 ± 4 µM
	8 ± 8 µM	Cc1ccc(O)c(C(=O)c2ccccc2O)c1 [compound 143]			
10 µM and 10.5 µM	0.5 ± 0.4 µM	O=C(c1ccccc1O)c1ccccc1O [compound 131]	0.6 µM		IC50 ([5]; Format 2): 43 ± 9 µM
110 ± 14 µM	200 ± 110 µM	CC(=O)c1c(O)cccc1O [compound 9]			Activity [2]: Activator
27 ± 25 µM		O=c1cc(-c2ccccc2)oc2c(Cl)c(O)c(Cl)c(O)c12 [compound 100]			

Source: US6828350B1, “Modulators of cysteine protease” (Exegenics Inc., priority 1997, dated 2004)
